Converted amounts (≈) assume the structure as drawn. Each block holds one molecule with its values, some of them ahead of it. The source made the active and inactive calls. The rule behind the calls is not given here.
Key:
[1] = Apparent permeability of the compound at 5 uM after 5 hrs by PAMPA; assay type: physicochemical
[2] = Unbound plasma concentration in human at 10 uM measured after 4 hrs by equilibrium dialysis method; assay type: ADME, cell-free
Plasma [3] = experiment: Anticoagulant activity in human plasma assessed as concentration required to double activated partial thromboplastin time; assay type: functional
Coagulation factor IX [4] = biological target: Coagulation factor IX (Rattus norvegicus, UniProt P16296); experiment: Inhibition of rat coagulation factor 9a
Sequence of Coagulation factor IX (Rattus norvegicus, UniProt P16296) (P16296 40-185 limits assumed): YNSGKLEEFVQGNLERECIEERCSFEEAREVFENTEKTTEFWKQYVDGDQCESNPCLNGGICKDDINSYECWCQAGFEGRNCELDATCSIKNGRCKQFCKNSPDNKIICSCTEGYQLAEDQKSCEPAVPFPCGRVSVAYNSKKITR
Sequence of Coagulation factor IX (Rattus norvegicus, UniProt P16296) (P16296 228-462 limits assumed): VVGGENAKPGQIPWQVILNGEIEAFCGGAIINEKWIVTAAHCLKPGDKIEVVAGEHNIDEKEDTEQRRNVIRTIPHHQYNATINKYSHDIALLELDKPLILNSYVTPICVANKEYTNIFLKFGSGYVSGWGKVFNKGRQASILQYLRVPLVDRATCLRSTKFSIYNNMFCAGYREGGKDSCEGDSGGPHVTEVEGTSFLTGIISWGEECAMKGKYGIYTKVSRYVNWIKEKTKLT

[5] = Solubility of the compound in phosphate buffer at pH 7.4 measured after 1.5 hrs by UV absorbance method; assay type: physicochemical
[6] = Apparent permeability in MDCK cells at 5 uM after 1 hr by LC-MS/MS method; assay type: ADME, cell-based, Canis lupus familiaris; conditions: dog
[7] = Apparent permeability in MDCK2-MDR1 cells at 5 uM after 1 hr by LC-MS/MS method; assay type: ADME, cell-based, Canis lupus familiaris; conditions: dog, MDCK-MDR1
[8] = Metabolic stability in human liver microsomes at 1 uM measured after 20 mins in presence of NADP+ by LC-MS/MS method; assay type: ADME, microsome; conditions: read-out: Stability
[9] = Metabolic stability in rat liver microsomes at 1 uM measured after 20 mins in presence of NADP+ by LC-MS/MS method; assay type: ADME, microsome; conditions: read-out: Stability
[10] = Metabolic stability in dog liver microsomes at 1 uM measured after 20 mins in presence of NADP+ by LC-MS/MS method; assay type: ADME, Canis lupus familiaris, microsome; conditions: read-out: Stability
[11] = Unbound plasma concentration in rat at 10 uM measured after 4 hrs by equilibrium dialysis method; assay type: ADME, cell-free
[12] = Unbound plasma concentration in dog at 10 uM measured after 4 hrs by equilibrium dialysis method; assay type: ADME, cell-free, Canis lupus familiaris
[13] = Volume of distribution at steady state in rat at 1 mg/kg, iv; assay type: ADME, organism-based; conditions: in vivo, read-out: Vdss
[14] = Total clearance in rat at 1 mg/kg, iv; assay type: ADME, organism-based; conditions: in vivo
[15] = Half life in rat at 1 mg/kg, iv; assay type: ADME, organism-based; conditions: in vivo
[16] = AUCt in rat at 1 mg/kg, iv; assay type: ADME, organism-based; conditions: in vivo
[17] = Cmax in rat at 10 mg/kg, po; assay type: ADME, organism-based; parameters: dose 10 mg/kg, route oral; conditions: in vivo
[18] = Tmax in rat at 10 mg/kg, po; assay type: ADME, organism-based; conditions: in vivo
[19] = AUCt in rat at 10 mg/kg, po; assay type: ADME, organism-based; conditions: in vivo
[20] = Oral bioavailability in rat at 10 mg/kg; assay type: ADME, organism-based; conditions: in vivo
[21] = Volume of distribution at steady state in dog at 0.3 mg/kg, iv; assay type: ADME, organism-based, Canis lupus familiaris; conditions: in vivo, read-out: Vdss
[22] = Total clearance in dog at 0.3 mg/kg, iv; assay type: ADME, organism-based, Canis lupus familiaris; conditions: in vivo
[23] = Half life in dog at 0.3 mg/kg, iv; assay type: ADME, organism-based, Canis lupus familiaris; conditions: in vivo
[24] = AUCt in dog at 0.3 mg/kg, iv; assay type: ADME, organism-based, Canis lupus familiaris; conditions: in vivo
Plasma [25] = experiment: Anticoagulant activity in rat plasma assessed as concentration required to double activated partial thromboplastin time; assay type: functional
Plasma [26] = experiment: Effect on prothrombin time in human plasma assessed as concentration required to double prothrombin time; assay type: functional
Plasma [27] = experiment: Effect on prothrombin time in rat plasma assessed as concentration required to double prothrombin time; assay type: functional
Cytochrome P450 1A2 [28] = biological target: T1, Cytochrome P450 1A2 (Homo sapiens, UniProt P05177); experiment: Inhibition of CYP1A2 in liver microsomes (unknown origin) assessed as formation of acetaminophen from phenacetin in presence of NADPH by LC-MS/MS analysis; assay type: ADME
T1 sequence (P05177 whole entry): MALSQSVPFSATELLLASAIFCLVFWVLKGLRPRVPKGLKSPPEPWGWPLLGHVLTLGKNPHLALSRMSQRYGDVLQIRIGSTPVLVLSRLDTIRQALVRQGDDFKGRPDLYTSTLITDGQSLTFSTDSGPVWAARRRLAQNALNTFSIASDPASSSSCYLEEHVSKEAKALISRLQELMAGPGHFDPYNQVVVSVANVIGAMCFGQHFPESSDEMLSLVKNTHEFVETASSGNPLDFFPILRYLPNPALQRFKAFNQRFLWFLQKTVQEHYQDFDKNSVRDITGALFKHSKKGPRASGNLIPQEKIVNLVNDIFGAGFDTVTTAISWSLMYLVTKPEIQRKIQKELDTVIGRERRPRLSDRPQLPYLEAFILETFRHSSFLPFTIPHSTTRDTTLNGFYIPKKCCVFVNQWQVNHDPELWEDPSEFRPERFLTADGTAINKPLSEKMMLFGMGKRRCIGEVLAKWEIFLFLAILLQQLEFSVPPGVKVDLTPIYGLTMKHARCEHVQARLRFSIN

Cytochrome P450 2C9 = Cytochrome P450 2C9 (Homo sapiens, UniProt P11712); experiment: Inhibition of CYP2C9 in liver microsomes (unknown origin) assessed as formation of 4-hydroxydiclofenac from diclofenac in presence of NADPH by LC-MS/MS analysis; assay type: ADME
Sequence of Cytochrome P450 2C9 (P11712 whole entry): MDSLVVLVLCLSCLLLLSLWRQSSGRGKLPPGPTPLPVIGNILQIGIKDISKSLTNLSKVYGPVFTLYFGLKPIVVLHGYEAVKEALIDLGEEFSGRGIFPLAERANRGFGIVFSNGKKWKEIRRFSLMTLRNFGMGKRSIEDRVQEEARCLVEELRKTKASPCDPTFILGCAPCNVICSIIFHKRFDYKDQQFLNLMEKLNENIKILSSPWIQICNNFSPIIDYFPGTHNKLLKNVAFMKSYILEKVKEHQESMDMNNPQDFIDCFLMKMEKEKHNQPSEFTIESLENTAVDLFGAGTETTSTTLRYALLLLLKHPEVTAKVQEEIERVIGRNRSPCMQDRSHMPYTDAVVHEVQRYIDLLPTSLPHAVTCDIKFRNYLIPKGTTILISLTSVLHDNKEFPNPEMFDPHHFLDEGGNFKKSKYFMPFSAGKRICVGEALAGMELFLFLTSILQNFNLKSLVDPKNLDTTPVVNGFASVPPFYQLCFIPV

Cytochrome P450 2C19 = Cytochrome P450 2C19 (Homo sapiens, UniProt P33261); experiment: Inhibition of CYP2C19 in liver microsomes (unknown origin) assessed as formation of 4-hydroxymephenytoin from S-mephenytoin in presence of NADPH by LC-MS/MS analysis; assay type: ADME
Sequence of Cytochrome P450 2C19 (P33261 whole entry): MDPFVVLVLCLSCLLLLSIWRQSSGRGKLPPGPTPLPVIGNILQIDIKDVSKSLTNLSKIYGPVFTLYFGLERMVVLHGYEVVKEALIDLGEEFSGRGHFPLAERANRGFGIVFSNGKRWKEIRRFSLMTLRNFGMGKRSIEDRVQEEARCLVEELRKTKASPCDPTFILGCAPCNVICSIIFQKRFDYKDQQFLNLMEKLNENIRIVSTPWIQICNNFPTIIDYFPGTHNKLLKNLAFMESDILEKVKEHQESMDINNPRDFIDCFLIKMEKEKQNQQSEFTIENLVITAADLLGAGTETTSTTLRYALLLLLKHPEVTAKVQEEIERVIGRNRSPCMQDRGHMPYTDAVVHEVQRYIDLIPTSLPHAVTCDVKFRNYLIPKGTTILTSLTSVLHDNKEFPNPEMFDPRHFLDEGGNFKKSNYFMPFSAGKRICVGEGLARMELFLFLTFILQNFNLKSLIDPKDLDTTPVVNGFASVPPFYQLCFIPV

Cytochrome P450 2D6 = Cytochrome P450 2D6 (Homo sapiens, UniProt P10635); experiment: Inhibition of CYP2D6 in liver microsomes (unknown origin) assessed as formation of 1-hydroxybufuralol from bufuralol in presence of NADPH by LC-MS/MS analysis; assay type: ADME
Sequence of Cytochrome P450 2D6 (P10635 whole entry): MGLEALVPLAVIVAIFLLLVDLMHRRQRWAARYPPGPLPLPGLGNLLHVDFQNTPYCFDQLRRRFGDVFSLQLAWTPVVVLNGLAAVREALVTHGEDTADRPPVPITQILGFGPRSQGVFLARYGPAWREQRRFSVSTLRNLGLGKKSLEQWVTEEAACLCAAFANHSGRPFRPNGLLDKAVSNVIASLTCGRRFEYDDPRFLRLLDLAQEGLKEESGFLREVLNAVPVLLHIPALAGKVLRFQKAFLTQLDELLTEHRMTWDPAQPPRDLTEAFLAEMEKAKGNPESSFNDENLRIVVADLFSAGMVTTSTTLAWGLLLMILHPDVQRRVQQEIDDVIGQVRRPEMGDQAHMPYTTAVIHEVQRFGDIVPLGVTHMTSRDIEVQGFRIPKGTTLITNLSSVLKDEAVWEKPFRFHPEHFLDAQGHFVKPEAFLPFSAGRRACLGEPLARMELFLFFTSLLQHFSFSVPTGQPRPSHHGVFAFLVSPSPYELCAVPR

Cytochrome P450 3A4 [29] = biological target: T2, Cytochrome P450 3A4 (Homo sapiens, UniProt P08684); experiment: Inhibition of CYP3A4 in liver microsomes (unknown origin) assessed as formation of 1-hydroxymidazolam from midazolam in presence of NADPH by LC-MS/MS analysis; assay type: ADME
T2 sequence (P08684 whole entry): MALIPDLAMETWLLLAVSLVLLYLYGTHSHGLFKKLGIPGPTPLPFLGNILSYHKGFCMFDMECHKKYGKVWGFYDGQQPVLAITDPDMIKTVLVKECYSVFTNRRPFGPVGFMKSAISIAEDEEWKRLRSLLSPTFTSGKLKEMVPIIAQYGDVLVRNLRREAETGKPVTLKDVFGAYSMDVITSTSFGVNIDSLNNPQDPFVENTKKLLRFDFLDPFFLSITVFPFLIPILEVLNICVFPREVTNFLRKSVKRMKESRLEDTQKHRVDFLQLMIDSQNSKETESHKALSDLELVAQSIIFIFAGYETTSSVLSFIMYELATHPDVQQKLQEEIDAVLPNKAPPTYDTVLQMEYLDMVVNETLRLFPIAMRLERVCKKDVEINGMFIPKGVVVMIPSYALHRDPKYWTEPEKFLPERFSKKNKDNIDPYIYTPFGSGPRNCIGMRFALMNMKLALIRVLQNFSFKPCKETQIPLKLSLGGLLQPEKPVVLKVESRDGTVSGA

Cytochrome P450 1A2 [30] = biological target: T1, Cytochrome P450 1A2; experiment: Induction of CYP1A2 in hepatocytes (unknown origin) assessed as 7-ethoxyresorufin O-dealkylation at 0.3 to 10 uM treated for 3 days; assay type: ADME, cell-based; conditions: 72 h
Cytochrome P450 3A4 [31] = biological target: T2, Cytochrome P450 3A4; experiment: Induction of CYP3A4 in hepatocytes (unknown origin) assessed as midazolam 1-hydroxylation at 0.3 to 10 uM treated for 3 days; assay type: ADME, cell-based; conditions: 72 h
Coagulation factor X = Coagulation factor X (Homo sapiens, UniProt P00742)
Sequence of Coagulation factor X (P00742 41-179 limits assumed): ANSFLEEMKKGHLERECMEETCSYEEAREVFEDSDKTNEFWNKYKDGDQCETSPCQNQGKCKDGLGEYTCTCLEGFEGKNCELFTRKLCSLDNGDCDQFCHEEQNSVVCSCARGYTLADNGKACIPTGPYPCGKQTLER
Sequence of Coagulation factor X (P00742 235-488 limits assumed): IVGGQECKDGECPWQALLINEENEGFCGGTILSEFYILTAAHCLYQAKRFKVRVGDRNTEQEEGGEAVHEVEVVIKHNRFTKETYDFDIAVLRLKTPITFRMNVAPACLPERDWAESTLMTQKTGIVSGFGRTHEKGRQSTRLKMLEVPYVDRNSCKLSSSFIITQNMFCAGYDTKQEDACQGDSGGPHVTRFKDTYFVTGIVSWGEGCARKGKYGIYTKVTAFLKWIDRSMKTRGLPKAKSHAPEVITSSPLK
Description: Inhibition of human coagulation factor 10a

Coagulation factor IX [32] = biological target: Coagulation factor IX (Homo sapiens, UniProt P00740)
Sequence of Coagulation factor IX (Homo sapiens, UniProt P00740) (P00740 47-191 limits assumed): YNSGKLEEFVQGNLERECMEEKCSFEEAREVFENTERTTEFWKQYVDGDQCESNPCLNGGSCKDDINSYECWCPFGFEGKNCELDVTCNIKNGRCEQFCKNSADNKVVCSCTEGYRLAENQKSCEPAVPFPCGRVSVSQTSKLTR
Sequence of Coagulation factor IX (Homo sapiens, UniProt P00740) (P00740 227-461 limits assumed): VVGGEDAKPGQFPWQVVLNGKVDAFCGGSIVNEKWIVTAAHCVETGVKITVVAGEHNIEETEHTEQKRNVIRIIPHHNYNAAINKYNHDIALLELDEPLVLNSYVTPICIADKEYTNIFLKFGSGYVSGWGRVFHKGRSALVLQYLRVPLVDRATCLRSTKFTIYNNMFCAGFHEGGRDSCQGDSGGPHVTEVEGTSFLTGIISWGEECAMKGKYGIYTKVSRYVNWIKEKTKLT

[33] = Cmax in rat at 1 mg/kg, po administered as cassette dose; assay type: ADME, organism-based; parameters: dose 1 mg/kg, route oral; conditions: in vivo
Rattus norvegicus [34] = experiment: Anticoagulant activity in po dosed rat assessed as prolongation of activated partial thromboplastin time measured after 2 hrs; assay type: functional, organism-based
Rattus norvegicus [35] = experiment: Effect on prothrombin time in rat at 1 to 100 mg/kg, po measured after 2 hrs; assay type: functional, organism-based

Compound: Nc1noc2c(N3CC[C@@H](NC(=O)c4ccc(-n5cnc6ncccc65)cc4Cl)C3)ncc(Cl)c12
- Papp at 5 h, 5 µM [1]: 3.1 ×10⁻⁶ cm/s
- fraction unbound at 4 h, 10 µM [2]: 0.008
- 2aPTT (Plasma [3]): 28 µM
- IC50 (Coagulation factor X): 25 µM
- IC50 (Coagulation factor IX [32]): 0.013 µM

Compound: Nc1noc2c(N3CC[C@@H](NC(=O)c4ccc(-c5cncnc5)cc4Cl)C3)ncc(Cl)c12
- Papp at 5 h, 5 µM [1]: 9.4 ×10⁻⁶ cm/s
- Cmax [33]: 380 ng/mL
- fraction unbound at 4 h, 10 µM [2]: 0.002
- 2aPTT (Plasma [3]): 101 µM
- IC50 (Coagulation factor X): > 100 µM
- IC50 (Coagulation factor IX [32]): 0.026 µM

Compound: Nc1noc2c(N3CC[C@@H](NC(=O)c4ccc(-n5cnnc5)cc4Cl)C3)ccc(Cl)c12
- IC50 (Coagulation factor X): > 30 µM
- IC50 (Coagulation factor IX [32]): 0.032 µM

Compound: Nc1noc2c(N3CCC(NC(=O)c4ccc(-n5cnnc5)cc4Cl)C3)cc(Cl)cc12 (racemic)
- IC50 (Coagulation factor X): > 100 µM
- IC50 (Coagulation factor IX [32]): 0.018 µM

Compound: Cc1cc(N2CC[C@@H](NC(=O)c3ccc(-n4cnnc4)cc3Cl)C2)c2onc(N)c2c1Cl
- IC50 (Coagulation factor X): 22 µM
- IC50 (Coagulation factor IX [32]): 0.062 µM

Compound: O=C(NC[C@H]1CN(c2ccc(N3CCOCC3=O)cc2)C(=O)O1)c1ccc(Cl)s1
- Activity (Rattus norvegicus [34]): Active
- Activity (Rattus norvegicus [35]): Active

Compound: Nc1noc2c(N3CC[C@@H](NC(=O)c4ccc(-n5cnnc5)cc4Cl)C3)ncc(Cl)c12
- Papp at 5 h, 5 µM [1]: 0.7 ×10⁻⁶ cm/s
- Cmax [33]: 120 ng/mL
- fraction unbound at 4 h, 10 µM [2]: 0.012
- IC50 (Coagulation factor X): 78 µM
- IC50 (Coagulation factor IX [32]): 0.031 µM

Compound: Cc1cc(N2CCC(NC(=O)c3ccc(-n4cnnc4)cc3Cl)C2)c2onc(N)c2c1 (racemic)
- IC50 (Coagulation factor X): > 100 µM
- IC50 (Coagulation factor IX [32]): 0.05 µM

More lines, main results first:

- Papp at 5 h, 5 µM [1]: 6.5 ×10⁻⁶ cm/s
- fraction unbound at 4 h, 10 µM [2]: 0.041
- IC50 (Coagulation factor IX [4]): 0.0037 µM
- solubility at 1.5 h [5]: 29 µM (≈ 14 µg/mL)
- Papp at 1 h, 5 µM [6]: 14.5 ×10⁻⁶ cm/s
- Papp at 1 h, 5 µM [7]: 5.8 ×10⁻⁶ cm/s
- remaining at 20 min, 1 µM [8]: 11%
- remaining at 20 min, 1 µM [9]: 24%
- remaining at 20 min, 1 µM [10]: 11%
- fraction unbound at 4 h, 10 µM [11]: 0.051
- fraction unbound at 4 h, 10 µM [12]: 0.054
- Vd [13]: 0.9 L/kg
- clearance [14]: 16.5 mL/min/kg
- half-life [15]: 0.8 h
- AUC(0-t) [16]: 1010 ng·h/mL
- Cmax [17]: 1600 ng/mL
- Tmax [18]: 1 h
- AUC(0-t) [19]: 5150 ng·h/mL
- bioavailability [20]: 51%
- Vd [21]: 1.3 L/kg
- clearance [22]: 3.5 mL/min/kg
- half-life [23]: 4.7 h
- AUC(0-t) [24]: 1410 ng·h/mL
- IC50 (Cytochrome P450 1A2 [28]): > 10 µM
- IC50 (Cytochrome P450 2C9): > 10 µM
- IC50 (Cytochrome P450 2C19): > 10 µM
- IC50 (Cytochrome P450 2D6): > 10 µM
- IC50 (Cytochrome P450 3A4 [29]): > 10 µM
- Activity (Cytochrome P450 1A2 [30]): Not Active
- Activity (Cytochrome P450 3A4 [31]): Not Active
- IC50 (Coagulation factor X): 31 µM
- IC50 (Coagulation factor IX [32]): 0.0049 µM
Compound: Cc1ncn(-c2ccc(C(=O)N[C@H]3[C@H]4CC[C@H]3N(c3ncc(Cl)c5cnoc35)C4)c(Cl)c2)n1
- 2aPTT (Plasma [3]): 5.8 µM
- 2aPTT (Plasma [25]): 6.2 µM
- 2PT (Plasma [26]): >200 µM
- 2PT (Plasma [27]): >200 µM

- Papp at 5 h, 5 µM [1]: 1.6 ×10⁻⁶ cm/s
- Cmax [33]: 210 ng/mL
- fraction unbound at 4 h, 10 µM [2]: 0.005
- IC50 (Coagulation factor X): > 100 µM
- IC50 (Coagulation factor IX [32]): 0.013 µM
Compound: Nc1noc2c(N3CC[C@@H](NC(=O)c4ccc(-n5cnc(CCO)c5)cc4Cl)C3)ncc(Cl)c12
- 2aPTT (Plasma [3]): 57 µM

- IC50 (Coagulation factor X): 29 µM
- IC50 (Coagulation factor IX [32]): 0.047 µM
Compound: Nc1noc2c(N3CC[C@@H](NC(=O)c4ccc(-n5cnnc5)cc4Cl)C3)cc(Cl)c(Cl)c12

- IC50 (Coagulation factor X): > 100 µM
- IC50 (Coagulation factor IX [32]): > 3 µM
Compound: Nc1noc2c(N3CC[C@@H](NC(=O)c4ccc(-c5ncccn5)cc4Cl)C3)ncc(Cl)c12

From ChEMBL document CHEMBL4017471, “Discovery of novel aminobenzisoxazole derivatives as orally available factor IXa inhibitors” (Bioorg Med Chem Lett, 2017)
